From patent US10570168B2, “2′ and/or 5′ amino-acid ester phosphoramidate 3′-deoxy adenosine derivatives as anti- cancer compounds” (NuCana plc, priority 2014, dated 2020)
pIC50: −log10 of the molar value.

What was measured:
Format in all cases: cell-based
HEL92.1.7 = test: Solid tumour and haematological malignancy assay (CellTiterGlo); settings: Homo sapiens, HEL 92.1.7, 72 h; for pIC50: read-out: IC50 (absolute IC50); for Emax: read-out: MI %
Method: (§1) In vitro viability assay were performed to assess the effects of compounds on cell viability in selected cell lines over 72 hr using the CellTiterGlo (CTG, Promega-G7573) assay. […] Cell viability assay using CellTiterGlo in 96-well plate were performed. Compound treatment 72 hrs, standard growth conditions, duplicates. Compounds were dissolved to 40 mM with thawed 100%. […] After compounds were dissolved in media, media containing compounds were warmed to 37° C. in incubator and then compounds in media were added to cell plates ([…]) in duplicates. […] All compound solubilities were checked and recorded again, then the plates were transferred to CO2 tissue culture incubator immediately and incubated for 3 days. DMSO final concentration is 0.5%.

MCF7 = test: as above; settings: Homo sapiens, MCF7, 72 h; for pIC50: read-out: IC50 (absolute IC50); for Emax: read-out: MI %
Method: as §1

KG-1 = test: as above; settings: Homo sapiens, KG-1, 72 h; for pIC50: read-out: IC50 (absolute IC50); for Emax: read-out: MI %
Method: as §1

MiaPaCa-2 = test: as above; settings: Homo sapiens, MIA PaCa-2, 72 h; for pIC50: read-out: IC50 (absolute IC50); for Emax: read-out: MI %
Method: as §1

HL-60 = test: as above; settings: Homo sapiens, HL-60, 72 h; for pIC50: read-out: IC50 (absolute IC50); for Emax: read-out: MI %
Method: as §1

HT29 = test: as above; settings: Homo sapiens, HT-29, 72 h; for pIC50: read-out: IC50 (absolute IC50); for Emax: read-out: MI %
Method: as §1

HepG2 = test: as above; settings: Homo sapiens, HepG2, 72 h; for pIC50: read-out: IC50 (absolute IC50); for Emax: read-out: MI %
Method: as §1

K562 = test: as above; settings: Homo sapiens, K562, 72 h; for pIC50: read-out: IC50 (absolute IC50); for Emax: read-out: MI %
Method: as §1

CCRFCEM = test: as above; settings: Homo sapiens, CCRF-CEM, 72 h; for pIC50: read-out: IC50 (absolute IC50); for Emax: read-out: MI %
Method: as §1

KG1a cells = test: Annexin V/propidium iodide in vitro apoptosis assay (LD50); settings: 72 h
Method: The KG1a cell line was maintained in RPMI medium (Invitrogen, Paisley, UK) supplemented with 100 units/ml penicillin, 100 μg/ml streptomycin and 20% foetal calf serum. Cells were subsequently aliquoted (10^5 cells/100 μl) into 96-well plates and were incubated at 37° C. in a humidified 5% carbon dioxide atmosphere for 72 h in the presence of nucleoside analogues and their respective proTides at concentrations that were experimentally determined for each series of compounds. In addition, control cultures were carried out to which no drug was added. Cells were subsequently harvested by centrifugation and were analyzed by flow cytometry using the Annexin V assay.
Cultured cells were harvested by centrifugation and then resuspended in 195 μl of calcium-rich buffer. Subsequently, 5 μl of Annexin V (Caltag Medsystems, Botolph Claydon, UK) was added to the cell suspension and cells were incubated in the dark for 10 mins prior to washing. Cells were finally resuspended in 190 μl of calcium-rich buffer together with 10 μl of propidium iodide. Apoptosis was assessed by dual-colour immunofluorescent flow cytometry as described previously.
The data obtained in these experiments were evaluated using one way ANOVA. […] LD50 values were calculated from the non-linear regression and line of best-fit analysis of the sigmoidal dose-response curves. […]

[1] = test system: leukaemic stem cell (LSC) compartment within the KG1a cell line; test: Immunophenotypic identification of the leukaemic stem cell compartment; settings: 72 h, for compound A at 1 mM and above
Method: KG1a cells were cultured for 72 h in the presence of a wide range of concentrations of each compound assayed. Cells were then harvested and labelled with a cocktail of anti-lineage antibodies (PE-cy7), anti-CD34 (FITC), anti-CD38 (PE) and anti-CD123 (PERCP cy5). The sub-population expressing a LSC phenotype were subsequently identified and were expressed as a percentage of all viable cells left in the culture. The percentages of stem cells remaining were then plotted on a dose-response graph and the effects of the compounds were compared with each other, and with the parent nucleoside.
The data obtained in these experiments were evaluated using one way ANOVA. All data was confirmed as Gaussian or a Gaussian approximation using the omnibus K2 test. LD50 values were calculated from the non-linear regression and line of best-fit analysis of the sigmoidal dose-response curves. All statistical analyses were performed using Graphpad Prism 6.0 software (Graphpad Software Inc., San Diego, Calif.).

SMILES | pIC50 (HEL92.1.7) | Emax (HEL92.1.7) | pIC50 (MCF7) | Emax (MCF7) | pIC50 (KG-1) | Emax (KG-1) | pIC50 (MiaPaCa-2) | Emax (MiaPaCa-2) | pIC50 (HL-60) | Emax (HL-60) | pIC50 (HT29) | Emax (HT29) | pIC50 (HepG2) | Emax (HepG2) | pIC50 (K562) | Emax (K562) | pIC50 (CCRFCEM) | Emax (CCRFCEM) | in vitro drug sensitivity / potency (LD50 comparison, FIG. 1) (KG1a cells) | LSC targeting compared with the parent nucleoside [1]
Nc1nc(F)nc2c1ncn2[C@@H]1O[C@H](CO)C[C@H]1O [2-F-Cordycepin, 3′deoxy-2-fluoroadenosine, reference compound] | 4.82 to 5.30 | 99% | 4.00 to 4.82 | 97% | 4.82 to 5.30 | 99% | 4.00 to 4.82 | 100% | 4.82 to 5.30 | 96% | 4.00 to 4.82 | 73% | 4.00 to 4.82 | 82% | 4.00 to 4.82 | 97% | 4.00 to 4.82 | 101% | significantly more potent than Cordycepin | 
CCCCCCOC(=O)[C@H](C)NP(=O)(OC[C@@H]1C[C@@H](O)[C@H](n2cnc3c(N)nc(F)nc32)O1)Oc1ccccc1 (stereo partly drawn) [R, (2S)-hexyl 2-(((((2S,4R,5R)-5-(6-amino-2-fluoro-9H-purin-9-yl)-4-hydroxytetrahydrofuran-2-yl)methoxy)(phenoxy)phosphoryl)amino)propanoate] | 5.30 to 7.00 | 99% | 5.30 to 7.00 | 87% | 5.30 to 7.00 | 96% | 4.82 to 5.30 | 98% | 5.30 to 7.00 | 100% | 4.00 to 4.82 | 92% | 4.82 to 5.30 | 82% | 4.82 to 5.30 | 96% | 5.30 to 7.00 | 100% |  | significantly improved when compared with the parental nucleoside
